Assay results from ChEMBL document CHEMBL1130467, “Synthesis and antitumor activity of novel cyclopropapyrroloindole(CPI) derivatives bearing methoxycarbonyl and trifluoromethyl groups” (Bioorg Med Chem Lett, 1997).
Values after ≈ are worked out from the molar mass of the structure shown.

Key:
P388 [1] = assay: Concentration required to inhibit p388 murine leukemia cells by 50%; type: functional, cell-based; settings: Mus musculus
P388 [2] = assay: Percent increase in life span of p388 murine leukemia cells (inoculated i.p. on day 0) as compared to that of untreated group at 0.125 mg/kg i.p. compound dose on day 1; type: functional; settings: Mus musculus, P388, ip, route intraperitoneal
[3] = Percent tumor growth (TGI) inhibition against S180 murine Sarcoma cells( inoculated s.c. into male ICR mice on day 0), as compared to that of untreated group at 0.5 mg/kg i.v. compound dose on day 1; type: functional; settings: Mus musculus, CCRF S-180, route intravenous, read-out: TGI
Colon 26 [4] = assay: Antitumor activity against colon 26 murine adenocarcinoma cells expressed as percent TGI (tumor growth inhibition) at 0.0625 mg/kg i.v. compound dose; type: functional; settings: Mus musculus, route intravenous, read-out: TGI
Colon 26 [5] = assay: Antitumor activity against colon 26 murine adenocarcinoma cells expressed as % body weight change at 0.250 mg/kg compound dose from day 7 to day 12; type: functional, Mus musculus; settings: dose 0.25 mg/kg
Colon 26 [6] = assay: Antitumor activity against colon 26 murine adenocarcinoma cells expressed as maximum dose within 10% body weight loss at 0.500 mg/kg i.v. compound dose; type: functional, Mus musculus; settings: dose 0.5 mg/kg; route intravenous
Colon 26 [7] = assay: Antitumor activity against colon 26 murine adenocarcinoma cells expressed as percent TGI (tumor growth inhibition) at 0.125 mg/kg i.v. compound dose; type: functional; settings: Mus musculus, route intravenous, read-out: TGI
Colon 26 [8] = assay: Antitumor activity against colon 26 murine adenocarcinoma cells expressed as % body weight change at 0.500 mg/kg compound dose from day 7 to day 12; type: functional, Mus musculus; settings: dose 0.5 mg/kg
HeLa = assay: Concentration required for 50% inhibition of human uterine Cervix Carcinoma cells (HeLaS3); type: functional, cell-based
Colon 26 [9] = assay: Antitumor activity against colon 26 murine adenocarcinoma cells expressed as % body weight change at 0.125 mg/kg compound dose from day 7 to day 12; type: functional, Mus musculus
Colon 26 [10] = assay: Antitumor activity against colon 26 murine adenocarcinoma cells expressed as percent TGI (tumor growth inhibition) at 0.500 mg/kg i.v. compound dose; type: functional; settings: Mus musculus, route intravenous, read-out: TGI
Colon 26 [11] = assay: Antitumor activity against colon 26 murine adenocarcinoma cells expressed as percent TGI (tumor growth inhibition) at 0.250 mg/kg i.v. compound dose; type: functional; settings: Mus musculus, route intravenous, read-out: TGI
Colon 26 [12] = assay: Antitumor activity against colon 26 murine adenocarcinoma cells expressed as % body weight change at 0.0625 mg/kg compound dose from day 7 to day 12; type: functional, Mus musculus
Colon 26 [13] = assay: Antitumor activity against colon 26 murine adenocarcinoma cells expressed as percent TGI 50 (tumor growth inhibition) at 0.500 mg/kg i.v. compound dose; type: functional, Mus musculus; settings: dose 0.5 mg/kg; route intravenous
Colon 26 [14] = assay: Antitumor activity against colon 26 murine adenocarcinoma cells expressed as percent TGI (tumor growth inhibition) at 0.0313 mg/kg i.v. compound dose; type: functional; settings: Mus musculus, route intravenous, read-out: TGI
Colon 26 [15] = assay: Antitumor activity against colon 26 murine adenocarcinoma cells expressed as percent TGI (tumor growth inhibition) at 0.177 mg/kg i.v. compound dose; type: functional; settings: Mus musculus, route intravenous, read-out: TGI
Colon 26 [16] = assay: Antitumor activity against colon 26 murine adenocarcinoma cells expressed as % body weight change at 0.0313 mg/kg compound dose from day 7 to day 12; type: functional, Mus musculus
P388 [17] = assay: Percent increase in life span of p388 murine leukemia cells (inoculated i.p. on day 0) as compared to that of untreated group at 0.25 mg/kg i.p. compound dose on day 1; cured mice =2/2; type: functional; settings: Mus musculus, P388, ip, route intraperitoneal
Colon 26 [18] = assay: Antitumor activity against colon 26 murine adenocarcinoma cells expressed as percent TGI 50 (tumor growth inhibition) at 0.177 mg/kg i.v. compound dose; type: functional, Mus musculus; settings: route intravenous
Colon 26 [19] = assay: Antitumor activity against colon 26 murine adenocarcinoma cells expressed as maximum dose within 10% body weight loss at 0.177 mg/kg i.v. compound dose; type: functional, Mus musculus; settings: route intravenous
[20] = Percent tumor growth (TGI) inhibition against S180 murine Sarcoma cells( inoculated s.c. into male ICR mice on day 0), as compared to that of untreated group at 0.25 mg/kg i.v. compound dose on day 1; type: functional; settings: Mus musculus, CCRF S-180, route intravenous, read-out: TGI
Colon 26 [21] = assay: Antitumor activity against colon 26 murine adenocarcinoma cells expressed as % body weight change at 0.177 mg/kg i.v. compound dose from day 7 to day 12; type: functional, Mus musculus; settings: route intravenous
Colon 26 [22] = assay: Antitumor activity against colon 26 murine adenocarcinoma cells expressed as percent TGI 50 (tumor growth inhibition) at 0.707 mg/kg i.v. compound dose; type: functional, Mus musculus; settings: route intravenous
Colon 26 [23] = assay: Antitumor activity against colon 26 murine adenocarcinoma cells expressed as percent TGI (tumor growth inhibition) at 0.707 mg/kg i.v. compound dose; type: functional; settings: Mus musculus, route intravenous, read-out: TGI
Colon 26 [24] = assay: Antitumor activity against colon 26 murine adenocarcinoma cells expressed as maximum dose within 10% body weight loss at 0.707 mg/kg i.v. compound dose; type: functional, Mus musculus; settings: route intravenous
Colon 26 [25] = assay: Antitumor activity against colon 26 murine adenocarcinoma cells expressed as % body weight change at 0.707 mg/kg compound dose from day 7 to day 12; type: functional, Mus musculus
P388 [26] = assay: Percent increase in life span of p388 murine leukemia cells (inoculated i.p. on day 0) as compared to that of untreated group at 0.25 mg/kg i.p. compound dose on day 1; cured mice= 2/2; type: functional; settings: Mus musculus, P388, ip, route intraperitoneal

Row | SMILES | IC50 (P388 [1]) [ng/mL] | ILS at 0.125 mg/kg (P388 [2]) [%] | inhibition in vivo at 0.5 mg/kg [3] [%] | inhibition in vivo at 0.125 mg/kg (Colon 26 [7]) [%] | IC50 (HeLa) [ng/mL] | Change in body weight (Colon 26 [9]) [%] | inhibition in vivo at 0.25 mg/kg [20] [%] | further results
1 | COC(=O)c1c(C(F)(F)F)[nH]c2c1C13CC1CN(C(=O)c1cc4cc(OC)c(OC)c(OC)c4[nH]1)C3=CC2=O (racemic) | 0.24 (≈ 0.44 nM) | 94 | 92 |  |  |  |  | 
2 | COC(=O)c1c(C(F)(F)F)[nH]c2c(OC(=O)N3CCN(C)CC3)cc3c(c12)[C@H](CBr)CN3C(=O)c1cc2cc(OC)c(OC)c(OC)c2[nH]1 |  |  |  | 76 | 18.8 (≈ 25 nM) | 1 |  | inhibition in vivo at 0.0625 mg/kg (Colon 26 [4]): 58%; Change in body weight (Colon 26 [5]): 5%; MTD/ TGI50 (Colon 26 [6]): 11.7; Change in body weight (Colon 26 [8]): 8%; inhibition in vivo at 0.5 mg/kg (Colon 26 [10]): 93%; inhibition in vivo at 0.25 mg/kg (Colon 26 [11]): 90%; Change in body weight (Colon 26 [12]): 2%; TGI50 (Colon 26 [13]): 0.0429
3 | COC(=O)c1[nH]c2c(c1C(=O)OC)C13CC1CN(C(=O)c1cc4cc(NC(=O)c5cc6ccccc6o5)ccc4[nH]1)C3=CC2=O (racemic) | 0.66 (≈ 1.09 nM) | 79 | 26 |  |  |  |  | 
4 | COC(=O)c1c(C(F)(F)F)[nH]c2c1C13CC1CN(C(=O)c1cc4cc(NC(=O)c5cc6ccccc6o5)ccc4[nH]1)C3=CC2=O (racemic) | 0.53 (≈ 0.862 nM) |  |  | 87 | 0.365 (≈ 0.594 nM) | -4 | 83 | inhibition in vivo at 0.0625 mg/kg (Colon 26 [4]): 68%; inhibition in vivo at 0.0313 mg/kg (Colon 26 [14]): 39%; inhibition in vivo at 0.177 mg/kg (Colon 26 [15]): 85%; Change in body weight (Colon 26 [16]): 0%; ILS at 0.25 mg/kg (P388 [17]): 2%; Change in body weight (Colon 26 [12]): -3%; TGI50 (Colon 26 [18]): 0.041; MTD/ TGI50 (Colon 26 [19]): 4.3; Change in body weight (Colon 26 [21]): -3%
5 | COC(=O)c1c(C)[nH]c2c(OC(=O)N3CCN(C)CC3)cc3c(c12)[C@H](CBr)CN3C(=O)c1cc2cc(OC)c(OC)c(OC)c2[nH]1 [PIBROZELESIN] |  |  |  | 26 | 18.1 (≈ 25.9 nM) | 1 |  | Change in body weight (Colon 26 [5]): -2%; TGI50 (Colon 26 [22]): 0.209 mg/kg; Change in body weight (Colon 26 [8]): -1%; inhibition in vivo at 0.707 mg/kg (Colon 26 [23]): 90%; MTD/ TGI50 (Colon 26 [24]): 3.4; inhibition in vivo at 0.5 mg/kg (Colon 26 [10]): 85%; inhibition in vivo at 0.25 mg/kg (Colon 26 [11]): 62%; Change in body weight (Colon 26 [25]): -9%
6 | COC(=O)c1[nH]c2c(c1C(=O)OC)C13CC1CN(C(=O)c1cc4cc(NC(=O)c5cc6ccccc6[nH]5)ccc4[nH]1)C3=CC2=O (racemic) | 0.31 (≈ 0.514 nM) | 102 | 44 |  |  |  |  | 
7 | COC(=O)c1c(C(F)(F)F)[nH]c2c1C13CC1CN(C(=O)c1cc4cc(OC)ccc4[nH]1)C3=CC2=O (racemic) | 0.23 (≈ 0.474 nM) | 69 |  |  |  |  | 54 | 
8 | COC(=O)c1c(C(F)(F)F)[nH]c2c1C13CC1CN(C(=O)c1cc4cc(NC(=O)c5cc6ccccc6[nH]5)ccc4[nH]1)C3=CC2=O (racemic) | 0.86 (≈ 1.4 nM) |  |  |  |  |  | 84 | ILS at 0.25 mg/kg (P388 [26]): 2%
9 | COC(=O)c1c(C)[nH]c2c1[C@@]13C[C@@H]1CN(C(=O)c1cc4cc(OC)c(OC)c(OC)c4[nH]1)C3=CC2=O (racemic) | 0.34 (≈ 0.692 nM) | 80 | 81 |  |  |  |  | 
